This note sets out measurements from US20250305004A1, “ENHANCING GENE TARGETING EFFICIENCY IN HUMAN CELLS WITH DNA-PK INHIBITOR TREATMENT” (The Board of Trustees of the Leland Stanford Junior …, priority 2022, published 2025).

SMILES strings stand for the structures. “Also recorded” adds a separate entry of the source.

For one data set, the system named is STING1 locus in PSCs. In words: RNP/AAV6 gene targeting at STING1 locus (V155M) in PSCs. Type of data set: cell-based, human. On the procedure:
In comparison, the untreated cells had around 30% INDELs (FIG. 4D-E).
For this, we tested gene targeting at the STING1 locus to introduce a point mutation (V155M) associated with an autoinflammatory disease called STING-associated vasculopathy with onset in infancy (SAVI)^86 (FIG. 12a). […] To test the feasibility of building a primary cell SAVI model, we next performed the STING1 gene targeting in human CD34+ HSPCs.
PSC culture and genome editing. Gene editing experiments were performed with three PSC lines: H9 embryonic stem cells (ESC) (WiCell) and the previously described 1205-4 and 1208-2 iPS cell lines^106. PSCs were maintained in feeder free conditions on Matrigel (corning, cat: 354277) coated plates in mTeSR1 medium ([…] technologies, cat: 85850). For gene editing, 24 h prior to nucleofection PSCs were pretreated with 10 μM of Y27632 (Cayman Chemical, cat: 10005583). […] PSCs were dissociated into single cells using Accutase (Innovative Cell Technologies, cat: AT104). […] Resuspended cells were added to one well of a 16-well Nucleocuvette Strip (Lonza) and nucleofection was performed in the 4D nucleofector (Lonza) using the program, CA137. […] Gene targeting efficiency was analyzed at 4-6 days post-editing.
ICE analysis for quantification of gene editing.

The test system of data set [1] is HSPCs. In words: Colony forming units (CFU) assay and genotyping of CCR5 gene targeted HSPCs. The data set is classed as cell-based, human. The following applies: for colonies with bi-allelic HDR knock-in: untreated 9%. The method, then: Colony forming units assay and genotyping of clones. For colony forming units (CFU) assay, 250 to 500 HSPCs were plated in SmartDish 6-well plates ([…] Technologies, cat: 27370) containing MethoCult H4434 Classic ([…] Technologies, cat: 04444). After 14 days, colonies were counted and scored using STEMvision automated counter ([…] Technologies) to determine the number of BFU-E, CFU-M, CFU-GM, and CFU-GEMM colonies. To determine the ratio of monoallelic vs biallelic integration, individual colonies of each type were picked and genomic DNA was extracted with QE. ddPCR was used to determine the clones with mono- vs bi-allelic integration as mentioned. WT and INDEL frequencies in the clones were determined using ICE analysis.

Data set [2] has as its system HSPCs. To be noted: 72 h post-gene targeting at CCR5, HBA1 and HBB loci; 0.5 μM. On the procedure:
Cell viability measurement. MTT assay was used for measuring the gene edited PSC viability. […] After this incubation, MTT was removed, and cells were lysed using 100 μl of lysis buffer (0.1N HCl and 0.5% SDS in isopropanol). After lysis, absorbance was measured at 570 nm with 650 nm as the reference using a SpectraMax M3 plate reader (Molecular devices). The absorbance values were used to calculate the cell viability of gene edited cells as a percentage relative to the mock cells. […] Viable cell counts were represented as percentage relative to the mock or untreated cells as indicated.

In data set [3] the test system is top off-target sites of HBB, CCR5 and HBA1 gRNAs in HSPCs. In words: NGS off-target analysis in gene targeted HSPCs. Type of data set: cell-based, human. The source says: For this, we assessed the previously characterized top off-target site for CCR5 (OT39)^66, HBB (OT1)^72 and HBA1 (OT1)74 gRNAs in the gene targeted HSPCs using next generation sequencing (NGS). […] Blocking of specific off-target breaks is possible, however, if there were biologically important reasons to do so^79, 80. […] Thus, gene editing with AZD treatment increases the frequency alleles with WT sequence and deletion INDELs without the HDR donor template.
NGS analysis for off-target effects. For this, we used commercially available Amplicon-EZ next generation sequencing service from AZENTA, Inc. Previously characterized top off-target site for CCR5 (OT39), HBB (OT1) and HBA1 (OT1) gRNAs were analyzed. PCR was used to amplify a 350-450 bp region encompassing the off-target sites from genomic DNA of the gene targeted HSPCs. Following are the primers used for PCR,
Following PCR, the amplicons were purified using Genejet PCR purification kit (Thermo Fisher Scientific, cat: K0701). The samples were normalized to a concentration of 20 ng/μl and 25 μl volume was submitted for Amplicon-EZ NGS service (AZENTA, Inc). DNA library preparations, sequencing reactions, and bioinformatics analysis were conducted at AZENTA, Inc. DNA Library Preparation was done using NEBNext Ultra DNA Library Prep kit following the manufacturer's recommendations (NEB). […] DNA libraries were validated on the Agilent TapeStation (Agilent Technologies) and were quantified using Qubit 2.0 Fluorometer (Invitrogen) and multiplexed in equal molar mass. […] The raw Illumina reads were checked for adapters and quality via FastQC. The raw Illumina sequence reads were trimmed of their adapters and nucleotides with poor quality using Trimmomatic v.0.36. Paired sequence reads were then merged to form a single sequence if the forward and reverse reads were able to overlap. The merged reads were aligned to the reference sequence and variant detection was performed using AZENTA proprietary Amplicon-EZ program. INDEL frequency at the target site was quantified and plotted as the frequency of reads with insertions and deletions.

In a further data set the test system is CCR5 locus in B cells. In words: RNP/AAV6 gene targeting at CCR5 locus in B cells. Type of data set: cell-based, human. The following applies: different concentrations (4, 2, 1, 0.5 and 0.1 μM); ddPCR. On the procedure:
B cell culture and genome editing. […] B cells were cultured at 37° C., 5% CO2, and ambient oxygen levels.
For genome editing, gRNA targeting CCR5 was complexed with Cas9 protein were complexed at a 2.5:1 ([…]) molar ratio at room temperature for 20 min. […] Cells were then replated at 1 million cells/ml in complete B cell activation media. […] Gene targeting was assessed at 3-days post-editing.

Take `Cc1cc2ncnn2cc1Nc1ncc2c(n1)n(C1CCOCC1)c(=O)n2C` [AZD7648, 7-methyl-2-((7-methyl-[1,2,4]triazolo[l,5-a]pyridin-6-yl)amino)-9-(tetrahydro-2H-pyran-4-yl)-7,9-dihydro-8H-purin-8-one]: the “INDELs after gene targeting” value with STING1 locus in PSCs (active gRNA (sg3)) is recorded as “without INDELs; also recorded: no INDELs”; in the data set with STING1 locus in PSCs (seemingly inactive gRNA (sg5), 0.5 μM) it was “without indels; also recorded: no INDELs”. Further, the “total colony number and colony type distribution” value in the data set with HSPCs [1] (0.5 μM) is recorded as “did not cause further decrease in total colony number nor a change in the colony type distribution”. Moreover, the “increase of colonies with bi-allelic HDR knock-in” value in the data set on HSPCs [1] (BFU-E and CFU-GM, 0.5 μM) is given as “more than 7 fold”. The “colonies with bi-allelic HDR knock-in” value in the data set on HSPCs [1] (BFU-E) came out at 67%; in the data set on HSPCs [1] (CFU-GM), 78%. Further, in the data set with HSPCs [2], the “viable cell count vs mock cells” value was “only a small drop in viable cell count”. For the same compound, the “reads with INDELs at off-target site” value in data set [3] (OT1 site for HBA1 gRNA, untreated […]) is recorded as “around 0.5%”; in data set [3] (OT1 site for HBB gRNA, 0.5 μM, untreated 1%), “about 3%”; in data set [3] (OT39 site for CCR5 gRNA, untreated below detection limit), 0.03%. Moreover, the “enhancement of gene targeting” value in the data set on CCR5 locus in B cells is given as “about 2 fold”.
